# What was measured:
# Type in all cases: cell-based
# [1] = system: STAPHYLOCOCCUS AUREUS 1775; test: In vitro antibacterial activity, MIC, BHI agar dilution; details: S. aureus 1775, unit assumed
# PSEUDOMONAS CEPACIA 296I = test: as above; details: P. cepacia 296I, unit assumed
# [2] = system: PSEUDOMONAS AERUGINOSA 5007; test: as above; details: P. aeruginosa 5007, unit assumed
# [3] = system: STAPHYLOCOCCUS EPIDERMIDIS 3519; details: S. epidermidis 3519; BHI agar; unit assumed
# [4] = system: MYCOBACTERIUM SMEGMATIS ATCC 114; test: In vitro antibacterial activity, MIC, BHI agar dilution; details: M. smegmatis ATCC 114, unit assumed
# [5] = system: PSEUDOMONAS AERUGINOSA BMH10; test: as above; details: P. aeruginosa BMH10, unit assumed
# [6] = system: STREPTOCOCCUS PYOGENES 930; test: as above; details: S. pyogenes 930, unit assumed
# [7] = system: STAPHYLOCOCCUS AUREUS CMX 553; test: as above; details: S. aureus CMX 553, unit assumed
# ESCHERICHIA COLI SS = test: as above; details: E. coli SS, unit assumed
# [8] = system: STAPHYLOCOCCUS AUREUS CMX 642A; test: as above; details: S. aureus CMX 642A, unit assumed
# ESCHERICHIA COLI KNK 437 = details: E. coli KNK 437; BHI agar; unit assumed
# [9] = system: PROVIDENCIA STUARTII CMX 640; details: P. stuartii CMX 640; BHI agar; unit assumed
# [10] = system: STREPTOCOCCUS BOVIS A-5169; test: In vitro antibacterial activity, MIC, BHI agar dilution; details: S. bovis A-5169, unit assumed
# STR[…] 508 = test: as above; details: S. agalactiae CMX 508, unit assumed
# Method in brief: (§1)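 MIC was read visually as the lowest drug level with no growth, a slight haze or sparsely isolated colonies relative to a compound-free growth control. Organisms were spotted at 1:100 dilution (1:10 for slow-growing strains) onto Brain Heart Infusion agar containing serial compound dilutions and incubated 20 to 24 hours at 35-37° C.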
# M[…] ATCC 9341 = test: as above; details: M. luteus ATCC 9341, unit assumed
# Method in brief: as §1
# M[…] ATCC 4698 = test: as above; details: M. luteus ATCC 4698, unit assumed
# Method in brief: as §1
# EN[…] ATCC 8043 = test: as above; details: E. faecium ATCC 8043, unit assumed
# Method in brief: as §1
# [11] = system: PSEUDOMONAS AERUGINOSA DPHD-2862; test: as above; details: P. aeruginosa DPHD-2862, unit assumed
# [12] = system: STAPHYLOCOCCUS AUREUS NCTC10649M; test: as above; details: S. aureus NCTC10649M, unit assumed
# ESCHERICHIA COLI H560 = test: as above; details: E. coli H560, unit assumed
# CANDIDA ALBICANS CCH 442 = test: as above; details: C. albicans CCH 442, unit assumed
# [13] = system: STAPHYLOCOCCUS AUREUS A-5278; test: as above; details: S. aureus A-5278, unit assumed
# [14] = system: PSEUDOMONAS AERUGINOSA K799/WT; test: as above; details: P. aeruginosa K799/WT, unit assumed
# [15] = system: ENTEROBACTER AEROGENES ATCC 13048; test: as above; details: E. aerogenes ATCC 13048, unit assumed
# [16] = system: STREPTOCOCCUS PYOGENES EES61; test: as above; details: S. pyogenes EES61, unit assumed
# [17] = system: STREPTOCOCCUS PYOGENES PIU 2548; test: as above; details: S. pyogenes PIU 2548, unit assumed
# [18] = system: ACINETOBACTER CALCOACETICUS CMX 669; test: as above; details: A. calcoaceticus CMX 669, unit assumed
# [19] = system: PSEUDOMONAS AERUGINOSA K799/61; test: as above; details: P. aeruginosa K799/61, unit assumed
# [20] = system: PSEUDOMONAS AERUGINOSA DPHD-5263; test: as above; details: P. aeruginosa DPHD-5263, unit assumed
# [21] = system: STAPHYLOCOCCUS AUREUS ATCC 6538P; test: as above; details: S. aureus ATCC 6538P, 35-37° C., 20 to 24 hours, unit assumed
# ESCHERICHIA COLI JUHL = details: E. coli JUHL; BHI agar; unit assumed
# ESCHERICHIA COLI DC-2 = test: In vitro antibacterial activity, MIC, BHI agar dilution; details: E. coli DC-2, unit assumed
# [22] = system: KLEBSIELLA PNEUMONIAE ATCC 8045; test: as above; details: K. pneumoniae ATCC 8045, unit assumed
# [23] = system: STAPHYLOCOCCUS AUREUS A5177; test: as above; details: S. aureus A5177, unit assumed
Structure (SMILES),MIC [1] [µg/mL],MIC (PSEUDOMONAS CEPACIA 296I) [µg/mL],MIC [2] [µg/mL],MIC [3] [µg/mL],MIC [4] [µg/mL],MIC [5] [µg/mL],MIC [6] [µg/mL],MIC [7] [µg/mL],MIC [8] [µg/mL],MIC [9] [µg/mL],MIC [10] [µg/mL],MIC (M[…] ATCC 9341) [µg/mL],MIC [11] [µg/mL],MIC (ESCHERICHIA COLI H560) [µg/mL],MIC (CANDIDA ALBICANS CCH 442) [µg/mL],MIC [13] [µg/mL],MIC [15] [µg/mL],MIC [17] [µg/mL],MIC [20] [µg/mL],MIC (ESCHERICHIA COLI JUHL) [µg/mL],also measured
CC[C@H]1OC(=O)[C@H](C)C(=O)[C@H](C)[C@@H](O[C@@H]2O[C@H](C)C[C@H](N(C)C)[C@H]2O)[C@](C)(OC)C[C@@H](C)C2=NC[C@H](Cc3ccccc3)N3C(=O)O[C@@]1(C)[C@H]3[C@H]2C [Example 5],> 100,25,> 100,0.2,0.2,50,> 100,0.2,0.2,> 100,0.01,0.05,> 100,3.1,> 100,> 100,50,0.39,> 100,12.5,MIC (ESCHERICHIA COLI SS): 0.39 µg/mL; MIC (ESCHERICHIA COLI KNK 437): 6.2 µg/mL; MIC (STR[…] 508): 0.02 µg/mL; MIC (M[…] ATCC 4698): 0.2 µg/mL; MIC (EN[…] ATCC 8043): 0.05 µg/mL; MIC [12]: 0.2 µg/mL; MIC [14]: 50 µg/mL; MIC [16]: 0.02 µg/mL; MIC [18]: 12.5 µg/mL; MIC [19]: 0.78 µg/mL; MIC [21]: 0.2 µg/mL
CC[C@H]1OC(=O)[C@H](C)C(=O)[C@H](C)[C@@H](O[C@@H]2O[C@H](C)C[C@H](N(C)C)[C@H]2O)[C@](C)(OC)C[C@@H](C)C2=N[C@H](C)[C@H](C)N3C(=O)O[C@@]1(C)[C@H]3[C@H]2C [Example 10],> 100,100,> 100,0.39,6.2,> 100,> 100,0.39,0.39,> 100,0.05,0.1,> 100,25,> 100,> 100,50,0.39,> 100,25,MIC (ESCHERICHIA COLI DC-2): 25 µg/mL; MIC (ESCHERICHIA COLI SS): 0.2 µg/mL; MIC (M[…] ATCC 4698): 0.2 µg/mL; MIC [12]: 0.39 µg/mL; MIC [18]: 25 µg/mL; MIC [21]: 0.39 µg/mL
CC[C@H]1OC(=O)[C@H](C)C(=O)[C@H](C)[C@@H](O[C@@H]2O[C@H](C)C[C@H](N(C)C)[C@H]2O)[C@](C)(OC)C[C@@H](C)C2=NC[C@@H](CCCc3ccccc3)N3C(=O)O[C@@]1(C)[C@H]3[C@H]2C [Example 36],> 100,50,100,0.2,0.39,50,50,,0.2,100,0.01,0.05,50,25,100,> 100,25,0.39,50,50,MIC (ESCHERICHIA COLI KNK 437): 12.5 µg/mL; MIC (STR[…] 508): 0.05 µg/mL; MIC (EN[…] ATCC 8043): 0.2 µg/mL; MIC [12]: 0.2 µg/mL; MIC [14]: 50 µg/mL; MIC [18]: 50 µg/mL; MIC [19]: 1.56 µg/mL; MIC [22]: 50 µg/mL; MIC [21]: 0.2 µg/mL
CC[C@H]1OC(=O)[C@H](C)C(=O)[C@H](C)[C@@H](O[C@@H]2O[C@H](C)C[C@H](N(C)C)[C@H]2O)[C@](C)(OC)C[C@@H](C)C2=N[C@H](COCc3cccc(Cl)c3)CN3C(=O)O[C@@]1(C)[C@H]3[C@H]2C [Example 80],100,100,> 100,0.39,1.56,> 100,50,0.39,0.39,> 100,≤ 0.005,0.05,> 100,> 100,100,100,> 100,0.2,> 100,> 100,MIC (ESCHERICHIA COLI DC-2): > 100 µg/mL; MIC (ESCHERICHIA COLI SS): 1.56 µg/mL; MIC (ESCHERICHIA COLI KNK 437): > 100 µg/mL; MIC (STR[…] 508): ≤ 0.005 µg/mL; MIC (M[…] ATCC 4698): 0.2 µg/mL; MIC (EN[…] ATCC 8043): 0.05 µg/mL; MIC [14]: > 100 µg/mL; MIC [16]: 0.01 µg/mL; MIC [18]: 100 µg/mL; MIC [19]: 3.1 µg/mL; MIC [22]: > 100 µg/mL; MIC [21]: 0.39 µg/mL
CC[C@H]1OC(=O)[C@H](C)C(=O)[C@H](C)[C@@H](O[C@@H]2O[C@H](C)C[C@H](N(C)C)[C@H]2O)[C@](C)(OC)C[C@@H](C)C2=NC3CN(CCOC)CC3N3C(=O)O[C@@]1(C)[C@H]3[C@H]2C (stereo partly shown) [Example 126],> 100,> 100,> 100,1.56,12.5,> 100,> 100,1.56,1.56,> 100,0.02,0.2,> 100,> 100,> 100,> 100,> 100,1.56,> 100,> 100,MIC (ESCHERICHIA COLI DC-2): > 100 µg/mL; MIC (ESCHERICHIA COLI SS): 0.78 µg/mL; MIC (ESCHERICHIA COLI KNK 437): > 100 µg/mL; MIC (STR[…] 508): 0.05 µg/mL; MIC (M[…] ATCC 4698): 0.78 µg/mL; MIC (EN[…] ATCC 8043): 0.2 µg/mL; MIC [14]: > 100 µg/mL; MIC [16]: 0.05 µg/mL; MIC [18]: 100 µg/mL; MIC [19]: 3.1 µg/mL; MIC [22]: > 100 µg/mL
CC[C@H]1OC(=O)[C@H](C)C(=O)[C@H](C)[C@@H](O[C@@H]2O[C@H](C)C[C@H](N(C)C)[C@H]2O)[C@](C)(OC)C[C@@H](C)C2=NCC(COC(=O)c3cccc4[nH]ccc34)N3C(=O)O[C@@]1(C)[C@H]3[C@H]2C (stereo partly shown) [Example 144],> 100,50,> 100,0.1,1.56,> 100,100,0.1,0.1,> 100,≤ 0.005,0.01,> 100,50,> 100,> 100,100,0.39,> 100,50,MIC [23]: 0.1 µg/mL; MIC (ESCHERICHIA COLI DC-2): 50 µg/mL; MIC (ESCHERICHIA COLI SS): 0.78 µg/mL; MIC (ESCHERICHIA COLI KNK 437): 50 µg/mL; MIC (STR[…] 508): ≤ 0.005 µg/mL; MIC (M[…] ATCC 4698): 0.1 µg/mL; MIC (EN[…] ATCC 8043): 0.1 µg/mL; MIC [12]: 0.1 µg/mL; MIC [14]: > 100 µg/mL; MIC [16]: ≤ 0.005 µg/mL; MIC [19]: 0.78 µg/mL; MIC [22]: 100 µg/mL; MIC [21]: 0.1 µg/mL

# Reference: patent US6274715A, “Tricyclic erythromycin derivatives” (priority 1997, dated 2001)
